Results as given in paper PMC5733478, “A Non-imaging High Throughput Approach to Chemical Library Screening at the Unmodified Adenosine-A3 Receptor in Living Cells” (Frontiers in Pharmacology, 2017).
Where a name gives a salt, the structure may show the parent alone.

Each compound was assayed against T1, human A3AR (Homo sapiens, UniProt P0DMS8) (assay: LOPAC library primary screen: single concentration (10 μM) inhibition of 25 nM CA200645 binding, PHERAstar FS). Conditions: not given.
T1 construct: expressed in transfected cells
T1 sequence (P0DMS8 1-318): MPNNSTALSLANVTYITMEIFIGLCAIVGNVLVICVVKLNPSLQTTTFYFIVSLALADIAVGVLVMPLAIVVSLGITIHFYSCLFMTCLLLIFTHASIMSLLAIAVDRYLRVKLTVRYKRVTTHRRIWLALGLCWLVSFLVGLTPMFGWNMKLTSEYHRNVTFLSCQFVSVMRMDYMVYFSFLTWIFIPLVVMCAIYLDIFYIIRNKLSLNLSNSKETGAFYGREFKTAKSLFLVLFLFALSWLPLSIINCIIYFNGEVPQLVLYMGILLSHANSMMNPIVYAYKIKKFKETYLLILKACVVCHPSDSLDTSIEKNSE
`C=CC[C@H](N)C(=O)O` [L-allylglycine] was tested, and the “% 25 nM CA200645 binding” value was 98.5 ± 1.7%. For `CN1Cc2c(N)cccc2C(c2ccccc2)C1` (centres unmarked) [Nomifensine maleate], the “% 25 nM CA200645 binding” value was 98.5 ± 14.7%. `C[C@@]12C(=O)OC(=O)[C@]1(C)[C@H]1CC[C@@H]2O1` [Cantharidin] was tested, and the “% 25 nM CA200645 binding” value was 89.3 ± 25.6%. `Nc1ncnc2c1ncn2C1CCCC1` [9-cyclopentyladenine] was tested, and the “% 25 nM CA200645 binding” value was 102.2 ± 2.7%. In the case of `S=c1[nH]c(-c2ccccc2)cn1-c1ccccc1` [KRM-III], the “% 25 nM CA200645 binding” value is reported as 70.4 ± 12.2%. With `CCN1/C(=C/C(C)=O)Sc2ccc(OC)cc21` [TG003] the “% 25 nM CA200645 binding” value was 77.3 ± 17.0%. For `COc1ccc(CCn2nnnc2C2(c3ccc(C)cc3)CC2)cc1` [Mephetyl tetrazole], the “% 25 nM CA200645 binding” value was 66.4 ± 18.5%. `N=C(N)NC(=N)Nc1ccccc1` [1-Phenylbiguanide] was tested, and the “% 25 nM CA200645 binding” value was 96.2 ± 2.3%. With `O=[N+]([O-])c1ccc2c(c1)S(=O)(=O)C=C2` [Stattic] the “% 25 nM CA200645 binding” value was 107.3 ± 19.6%. With `COc1cc(N)c(Cl)cc1C(=O)OCCN1CCCCC1` [ML 10302] the “% 25 nM CA200645 binding” value was 105.8 ± 6.4%. In the case of `CCCC(CCC)C(=O)O` [Valproic acid sodium], the “% 25 nM CA200645 binding” value is reported as 99.8 ± 9.6%. In the case of `CCCN1CCc2cccc3c2[C@H]1Cc1ccc(O)c(O)c1-3.Cl` [R(-)-Propylnorapomorphine hydrochloride], the “% 25 nM CA200645 binding” value is reported as 96.1 ± 7.1%. `CN1CCC[C@@H]1Cc1c[nH]c2ccc(Nc3ncccc3[N+](=O)[O-])cc12` [CP-135807] was tested, and the “% 25 nM CA200645 binding” value was 96.1 ± 6.8%. For `Nc1nc2c(ncn2CCOCP(=O)(O)O)c(=O)[nH]1` [PMEG hydrate], the “% 25 nM CA200645 binding” value was 97.6 ± 14.8%. For `CCOC(=O)C1=C(C)NC(C)=C(C(=O)OC)C1c1cccc([N+](=O)[O-])c1` (centres unmarked) [Nitrendipine], the “% 25 nM CA200645 binding” value was 96.1 ± 17.4%. In the case of `CCCCCCCCCCCCCC(=O)O[C@@H]1[C@@H](C)[C@@]2(O)[C@@H](C=C(CO)C[C@]3(O)C(=O)C(C)=C[C@@H]23)[C@@H]2C(C)(C)[C@]12OC(C)=O` [Phorbol 12-myristate 13-acetate], the “% 25 nM CA200645 binding” value is reported as 80.3 ± 5.6%. `Cc1cc([C@@H]2CCCN2C)on1.Cl` [ABT-418 hydrochloride] was tested, and the “% 25 nM CA200645 binding” value was 101.9 ± 4.7%. `CNCCc1ccc(O)c(O)c1.Cl` [N-Methyldopamine hydrochloride] was tested, and the “% 25 nM CA200645 binding” value was 96.1 ± 15.9%. `C[C@]12C=CC(=O)C=C1CC[C@@H]1C2=CC[C@]2(C)[C@@H](C(=O)CN3CCN(c4cc(N5CCCC5)nc(N5CCCC5)n4)CC3)CC[C@@H]12.O=C(O)/C=C\C(=O)O` [U-74389G maleate] was tested, and the “% 25 nM CA200645 binding” value was 36.9 ± 10.8%. With `Clc1cccc(Cl)c1N=C1NCCN1` [Clonidine hydrochloride] the “% 25 nM CA200645 binding” value was 101.9 ± 9.8%. For `COc1ccccc1N1CCN(CCN(C(=O)C2CCCCC2)c2ccccn2)CC1.O=C(O)/C=C\C(=O)O` [WAY-100635 maleate], the “% 25 nM CA200645 binding” value was 90.8 ± 17.8%. In the case of `CS(=O)(=O)O.Cc1c(O)cccc1C(=O)N[C@@H](CSc1ccccc1)[C@H](O)CN1C[C@H]2CCCC[C@H]2C[C@H]1C(=O)NC(C)(C)C.O` [Nelfinavir mesylate hydrate], the “% 25 nM CA200645 binding” value is reported as 77.3 ± 17.3%. `CC(=O)NCCc1c[nH]c2ccccc12` [N-Acetyltryptamine] was tested, and the “% 25 nM CA200645 binding” value was 99.0 ± 14.1%. In the case of `Cn1c(=O)c2[nH]c(-c3ccc(S(=O)(=O)O)cc3)nc2n(C)c1=O` [8-(p-Sulfophenyl)theophylline], the “% 25 nM CA200645 binding” value is reported as 97.2 ± 13.7%. `O=C(Nc1cccc(C(=O)Nc2ccc(S(=O)(=O)O)c3cc(S(=O)(=O)O)cc(S(=O)(=O)O)c23)c1)Nc1cccc(C(=O)Nc2ccc(S(=O)(=O)O)c3cc(S(=O)(=O)O)cc(S(=O)(=O)O)c23)c1` [NF 023] was tested, and the “% 25 nM CA200645 binding” value was 83.8 ± 25.8%. For `CCC(NC(C)C)C(O)c1ccc(O)c(O)c1.CS(=O)(=O)O` (centres unmarked) [Isotharine mesylate], the “% 25 nM CA200645 binding” value was 102.1 ± 6.6%. In the case of `NCCCP(=O)(O)O` [3-Aminopropylphosphonic acid], the “% 25 nM CA200645 binding” value is reported as 90.0 ± 2.1%. `C=CCc1ccccc1OCC(O)CNC1(C)CCC(C(C)(C)NC(=O)CBr)CC1` (centres unmarked) [Bromoacetyl alprenolol menthane] was tested, and the “% 25 nM CA200645 binding” value was 102.8 ± 4.8%. With `O=C1C=CC(=O)C=C1` [p-Benzoquinone] the “% 25 nM CA200645 binding” value was 85.9 ± 13.7%. For `CCN1CCCC1CNC(=O)c1cc(S(=O)(=O)CC)c(N)cc1OC` (centres unmarked) [Amisulpride], the “% 25 nM CA200645 binding” value was 98.0 ± 5.3%. In the case of `COc1ccc(CCN(C)CCCC(C#N)(c2cc(OC)c(OC)c(OC)c2)C(C)C)cc1OC.Cl` (racemic) [(±)-Methoxyverapamil hydrochloride], the “% 25 nM CA200645 binding” value is reported as 97.3 ± 10.6%. For `O=c1c(-c2ccc(O)cc2)coc2cc(O)ccc12` [Daidzein], the “% 25 nM CA200645 binding” value was 88.9 ± 6.0%. In the case of `N=C(N)NC(CCC(=O)O)C(=O)O` (stereo not drawn) [alpha-Guanidinoglutaric acid], the “% 25 nM CA200645 binding” value is reported as 76.4 ± 9.5%. In the case of `NCC(=O)NCCC(c1ccccc1)c1ccccc1` [N-(3,3-Diphenylpropyl)glycinamide], the “% 25 nM CA200645 binding” value is reported as 98.7 ± 7.8%. In the case of `Br.CN=c1nc(-c2ccccc2)n(-c2ccccc2)s1` [SCH-202676 hydrobromide], the “% 25 nM CA200645 binding” value is reported as 83.4 ± 13.1%. For `CC(=O)O[C@H]1Cc2ccccc2N(C(N)=O)c2ccccc21` [BIA 2-093], the “% 25 nM CA200645 binding” value was 110.6 ± 5.0%. With `CC[N+](CC)(CC)CCOc1ccc(/C=C/c2ccccc2)cc1` [MG 624] the “% 25 nM CA200645 binding” value was 106.9 ± 11.5%. With `C[C@@H](O)[C@H]1C(=O)N2C(C(=O)O)=C(SCCN=CN)C[C@H]12` [Imipenem monohydrate] the “% 25 nM CA200645 binding” value was 96.8 ± 2.2%. For `Cn1c(=O)c2c(nc(C=Cc3cccc(Cl)c3)n2C)n(C)c1=O` [8-(3-Chlorostyryl)caffeine], the “% 25 nM CA200645 binding” value was 79.6 ± 7.9%. In the case of `C1CCc2nnnn2CC1` [Pentylenetetrazole], the “% 25 nM CA200645 binding” value is reported as 95.4 ± 8.7%. For `CC(=O)NNC(=O)N1Cc2ccccc2Oc2ccc(Cl)cc21` [SC 19220], the “% 25 nM CA200645 binding” value was 105.0 ± 9.4%. For `Cc1ccc(-c2cc(C(F)(F)F)nn2-c2ccc(S(N)(=O)=O)cc2)cc1` [Celecoxib], the “% 25 nM CA200645 binding” value was 72.6 ± 20.4%. For `O=C1CCc2cc(OCCCCc3nnnn3C3CCCCC3)ccc2N1` [Cilostazol], the “% 25 nM CA200645 binding” value was 105.8 ± 41.7%. `CCc1ccc2c(-c3cccc(Cl)c3)nc(=O)n(CC)c2n1` [YM 976] was tested, and the “% 25 nM CA200645 binding” value was 93.5 ± 3.0%. In the case of `COCCOC(=O)C1=C(C)NC(C)=C(C(=O)OC/C=C/c2ccccc2)C1c1cccc([N+](=O)[O-])c1` (centres unmarked) [Cilnidipine], the “% 25 nM CA200645 binding” value is reported as 67.0 ± 19.0%. `Cl.NCC(O)c1ccc(O)cc1` (racemic) [(±)-Octopamine hydrochloride] was tested, and the “% 25 nM CA200645 binding” value was 103.0 ± 1.6%.

Same assay, conditions: % of control wells (1% DMSO and 25 nM CA200645); compounds at 10 µM; whole live cells expressing the A3AR; mean ± SD, three experiments in duplicate
With `CCCCCN(CCCCC)C(=O)C(CCC(=O)O)NC(=O)c1ccc(Cl)c(Cl)c1` (centres unmarked) [Lorglumide sodium] the “% 25 nM CA200645 binding” value was 99.4 ± 5.5%. In the case of `O=c1c(-c2ccc(O)cc2)coc2cc(O)cc(O)c12` [Genistein], the “% 25 nM CA200645 binding” value is reported as 66.1 ± 12.2%. In the case of `C=C1C(=O)O[C@H]2[C@H]1CC/C(C)=C/CC[C@@]1(C)O[C@@H]21` [Parthenolide], the “% 25 nM CA200645 binding” value is reported as 98.5 ± 15.3%.

Same assay, conditions: compounds tested at 10 µM; % of control wells (1% DMSO and 25 nM CA200645); whole live cells expressing the A3AR; mean ± SD, three experiments in duplicate
With `CCCCN(CCCC)CC(O)c1cc(Cl)cc2c1-c1ccc(Cl)cc1/C2=C/c1ccc(Cl)cc1` (centres unmarked) [Lumefantrine] the “% 25 nM CA200645 binding” value was 94.4 ± 10.9%. In the case of `CNS(=O)(=O)CCc1ccc2[nH]cc(C3CCN(C)CC3)c2c1` [Naratriptan hydrochloride], the “% 25 nM CA200645 binding” value is reported as 102.9 ± 17.6%. `O=C1NCN(c2ccccc2)C12CCN(CC1COc3ccccc3O1)CC2` (centres unmarked) [Spiroxatrine] was tested, and the “% 25 nM CA200645 binding” value was 112.7 ± 3.0%. With `O=C1CC[C@@]2(O)[C@H]3Cc4ccc(O)c5c4[C@@]2(CCN3CC2CC2)[C@H]1O5` [Naltrexone hydrochloride] the “% 25 nM CA200645 binding” value was 102.6 ± 6.5%.
